Patent US8609858B2, “Spiro derivatives of parthenin as novel anticancer agents” (Council of Scientific & Industrial Research, priority 2008, dated 2013)
pIC50: −log10 of the molar value.

Columns and labels:
[1] = tested on: Hep-2; assay: In vitro cytotoxicity screening (sulphodamine B dye), Hep-2; assay type: cell-based; conditions: Homo sapiens, read-out: cell growth inhibition
Description: (§1) Cells at sub confluent stage were harvested from the flask by treatment with trypsin (0.5% in PBS containing 0.02% EDTA) for determination of cytotoxicity. Cells with viability of more than 98%, as determined by trypan blue, were used for assay. The cell suspensions of required cell density were prepared in complete growth medium with gentamycin (50 μg/ml) for determination of cytotoxicity. The cells (100 μl/well) were inoculated in 96 well tissue culture plates. The cells were allowed to grow for 24 hrs temperature of 37° C. and in a humidified atmosphere of 5% CO2 in air. Stock solution of (20 mM) of test material was prepared in DMSO. The stock solution was serially diluted with complete growth medium containing 50 μg/ml of gentamycin to obtain […] working test solutions of 1., 2, 5, 10, 50 and 100 μM. In vitro cytotoxicity (IC50 value) against human cancer cell lines was determined using sulphodamine B dye.^5,6 The results are summarized in table 4.
(§2) The human Cancer Cell lines were obtained either from National Center for Cell Science, Pune, India or National Cancer Institute, Frederick, U.S.A. The human cancer cell colon: SW-620, prostrate, PC-3, DU-145 and acute lymphoblastic leukemia (MOLT-4) were grown and maintained in RPMI-1640 medium, pH 7.4, HEP-2. […]

[2] = tested on: acute lymphoblastic leukemia Cells (MOLT-4); assay: DNA fragmentation by DNA gel electrophoresis; assay type: cell-based, human; conditions: 10, 50 & 100 μM, 24 hrs
Description: DNA fragmentation was determined by electrophoresis of extracted genomic DNA from acute lymphoblastic leukemia Cells (MOLT-4). Briefly, exponentially growing cells (3×10^6 cells/ml) in 6 well plates were treated with “Compound-17” (1, 10, 50 and 100 μM) for 24 hrs. Cells were harvested, washed with PBS, pellets were dissolved in lysis buffer (10 mM EDTA, 50 mM Tris Buffer, pH 8.0, 0.5% w/v SDS and proteinase K 0.5 mg/ml) and incubated at 50° C. for 1 hr. lysate was further incubated with RNase A (0.5 mg/ml) at 50° C. for 1 hr. Finally, the DNA obtained was heated rapidly to 70° C., supplemented with loading dye and immediately resolved on to 1.5% agarose gel at 50 V for 2-3 hrs (FIG. 2).

[3] = tested on: SW-620; assay: In vitro cytotoxicity screening (sulphodamine B dye), SW-620; assay type: cell-based; conditions: Homo sapiens
Description: as §1, with “Cells with viability of more than 98%, as determined by trypan blue, were used for assay.” left out, “μM.” for “μM. In vitro cytotoxicity (IC50 value) against human cancer cell lines was determined using sulphodamine B dye.^5,6 The results are summarized in table 4.”
(§3) The media were supplemented with FCS (10%), penicillin (100 Units/ml), streptomycin (100 μg/ml) and glutamine (2 mM) and cells were grown in CO2 incubator (Hera cell, Heraeus, USA) at 37° C. with 90% humidity and 5% CO2.

[4] = tested on: DU-145; assay: In vitro cytotoxicity screening (sulphodamine B dye), DU-145; assay type: cell-based; conditions: Homo sapiens
Description: as §1, with “Cells with viability of more than 98%, as determined by trypan blue, were used for assay.” left out, “μM.” for “μM. In vitro cytotoxicity (IC50 value) against human cancer cell lines was determined using sulphodamine B dye.^5,6 The results are summarized in table 4.”
as §3

[5] = tested on: Ehrlich Ascites Carcinoma (EAC); assay: Anti tumor activity on Ehrlich Ascites Carcinoma (EAC) bearing mice; assay type: in vivo; conditions: for % Tumor growth inhibition / Ascitic fluid volume (ml) Mean ± SE / Tumor cells in ascitic fluid (×10^7) Mean ± SE: nine days, day 12
Excerpt: Non-inbred swiss albino mice from an in-house colony were used in the present study. The breeding and experimental animals were housed in standard size polycarbonate cages providing internationally recommended space for each animal. Animals were fed balanced mice feed supplied by MIs Ashirwad Industries, Chandigarh (India) and autoclaved water was available ad libitum. Animals were cared as per the guide for the care and use of laboratory animals (1996), ILAR, Washington D.C. They were housed in controlled conditions of temperature (23±2° C.), humidity (50-60%) and 12:12 hrs of light: dark cycle. The study and the number of animals used were approved by the institutional animal ethics committee, IIIM, Jammu, India. The study was conducted as per the protocols of National Cancer Institute (NCl), USA (Geran et al., 1972).
Ehrlich Ascites Carcinoma (EAC) was propagated by transplanting 1×10^7 cells from an animal bearing 8-10 days old Ehrlich Ascites Carcinoma, into the peritoneal cavity of non-inbreed swiss mice. For testing, mice of the same sex weighing 20 ±3 g bearing ascites tumor were selected. 1×10^7 cells obtained from an animal bearing 8-10 days old ascites tumor were injected into peritoneal cavity of all animals used for testing (0 Day). On next day animals were randomized and divided into test groups (7 animals in each test group) and one tumor control group (10 animals). Test groups were treated with different doses of Parthenin (10 mg/kg, 25 mg/kg and 50 mg/kg) and its derivative Compound-17 (10 mg/kg, 25 mg/kg and 50 mg/kg, 100 mg/kg and 200 mg/kg) suspension in 1% gum acacia in their respective group intraperitonealy for nine consecutive days. Another test group was administered 5 FU @ 20 mg/kg i.p and served as positive control. The tumor control group was similarly administered normal saline (0.2 ml i.p). The percent tumor growth inhibition were measured on day 12 with respect to volume of ascitic fluid and the number of tumor cells in the ascitic fluid of peritoneal cavity (Geran et al., 1972; Singh et al., 2007).
The percent tumor growth inhibition was calculated as follow. % growth inhibition=100×(Average no. of cells in control group−Average no. of cells in test group)/Average no. of cells in control group Results: […]

[6] = tested on: human cancer cell lines; assay: In vitro cytotoxicity screening, human cancer cell lines in general; assay type: cell-based; conditions: all the cell lines used, read-out: growth inhibition of human cancer cell lines
Description: as §1, §2

[7] = tested on: PC-3; assay: In vitro cytotoxicity screening (sulphodamine B dye), PC-3; assay type: cell-based; conditions: Homo sapiens; PC-3 prostate cancer cell line
Description: as §1, with “Cells with viability of more than 98%, as determined by trypan blue, were used for assay.” left out, “μM.” for “μM. In vitro cytotoxicity (IC50 value) against human cancer cell lines was determined using sulphodamine B dye.^5,6 The results are summarized in table 4.”
as §3

## C[C@H]1CC[C@@H]2[C@@H](OC(=O)C23CC(c2c4ccccc4cc4ccccc24)=NO3)[C@]2(C)C(=O)C=C[C@@]12O (stereo partly drawn) [Compound -17]
[1]
  inhibition at 5 µM: 71%
[2]
  DNA ladder (DNA fragmentation): DNA ladder was observed
[3]; SW-620 colon cancer cell line
  pIC50: 5.37
[3]; at 5 μM, SW-620, read-out: cell growth inhibition
  inhibition at 5 µM: 72%
[4]; DU-145 prostate cancer cell line
  pIC50: 5.34
[4]; at 5 μM, DU-145, read-out: cell growth inhibition
  inhibition at 5 µM: 85%
[5]; 10 mg/kg i.p.
  % Tumor growth inhibition: 7.74%
  Ascitic fluid volume (ml) Mean ± SE: 4.07 ± 0.35 mL
  Tumor cells in ascitic fluid (×10^7) Mean ± SE: 78.42 ± 2.90 ×10^7
[5]; 25 mg/kg i.p.
  % Tumor growth inhibition: 19.16%
  Ascitic fluid volume (ml) Mean ± SE: 3.62 ± 0.32 mL
  Tumor cells in ascitic fluid (×10^7) Mean ± SE: 68.71 ± 3.16 ×10^7
[5]; 50 mg/kg i.p.
  % Tumor growth inhibition: 27.23%
  Ascitic fluid volume (ml) Mean ± SE: 2.85 ± 0.37 mL
  Tumor cells in ascitic fluid (×10^7) Mean ± SE: 61.85 ± 4.20 ×10^7
[5]; 100 mg/kg i.p.
  % Tumor growth inhibition: 60.50%
  Ascitic fluid volume (ml) Mean ± SE: 2.07 ± 0.33 mL
  Tumor cells in ascitic fluid (×10^7) Mean ± SE: 33.57 ± 2.60 ×10^7
[5]; 200 mg/kg i.p., EAC bearing mice
  mortality of test animals: All animals died by 3rd day
[6]
  inhibition at 5 µM: ≥ 70%
[7]
  pIC50: 5.31
